Experimental data reported in PubChem BioAssay (NCI).
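96-well plates; 48 h exposure; 5 concentrations. Endpoints by linear interpolation between flanking doses. Not reached: highest tested concentration assigned. Abbreviation: GI50, concentration required for 50% inhibition of growth. TGI: total growth inhibition.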

Key:
Assay in all cases: NCI-60 cell line screen, 48 h
SN12C renal = tested on: SN12C renal
RPMI-8226 leukemia = tested on: RPMI-8226 leukemia
M14 melanoma = tested on: M14 melanoma
OVCAR-8 ovarian = tested on: OVCAR-8 ovarian
UO-31 renal = tested on: UO-31 renal
SR leukemia = tested on: SR leukemia
EKVX NSCLC = tested on: EKVX NSCLC
HOP-62 NSCLC = tested on: HOP-62 NSCLC
SK-MEL-2 melanoma = tested on: SK-MEL-2 melanoma
OVCAR-5 ovarian = tested on: OVCAR-5 ovarian

SMILES	TGI (SN12C renal)	TGI (RPMI-8226 leukemia)	TGI (M14 melanoma)	TGI (OVCAR-8 ovarian)	TGI (UO-31 renal)	TGI (SR leukemia)	TGI (EKVX NSCLC)	TGI (HOP-62 NSCLC)	TGI (SK-MEL-2 melanoma)	TGI (OVCAR-5 ovarian)	GI50 (SN12C renal)	GI50 (RPMI-8226 leukemia)	GI50 (M14 melanoma)	GI50 (OVCAR-8 ovarian)	GI50 (UO-31 renal)	GI50 (SR leukemia)	GI50 (EKVX NSCLC)	GI50 (HOP-62 NSCLC)	GI50 (SK-MEL-2 melanoma)	GI50 (OVCAR-5 ovarian)
COc1ccc(C2C(N)=NCC2c2ccccn2)cc1 (stereo not given)	> 100 µM	> 100 µM	> 100 µM	> 100 µM	> 100 µM	> 100 µM	> 100 µM	> 100 µM	> 100 µM	> 100 µM										
CCOC(=O)[C@@H](C)C[C@H](Cc1ccccc1)NC(=O)c1csc([C@@H](C[C@H](C(C)C)N(C)C(=O)[C@@H](NC(=O)[C@H]2CCCCN2C)C(C)(C)C)OC(C)=O)n1	> 16.7 µM	> 6.36 µM	0.0294 µM	> 16.7 µM	> 10.8 µM	> 16.7 µM	> 16.7 µM	> 16.7 µM	> 16.7 µM	> 16.7 µM	0.00307 µM	< 0.00167 µM	< 0.00167 µM	< 0.00167 µM	2.97 nM	< 0.00167 µM	< 0.00167 µM	< 0.00167 µM	< 0.00167 µM	< 0.00167 µM
COc1ccc(C2C(C#N)=C(N)OC3=C2CCCc2ccc(F)cc23)cc1OC (stereo not given)	39.5 µM	22.8 µM	41.8 µM	53.5 µM	31.8 µM	> 100 µM	37.5 µM	42.3 µM	57.9 µM	65.2 µM	19.7 µM	7.46 µM	19.9 µM	21.4 µM	16500 nM	> 100 µM	10.1 µM	21.5 µM	21.2 µM	24.7 µM
C=CCOc1c(Br)cc(Br)cc1Br	> 100 µM	> 100 µM	> 100 µM	> 100 µM	57.8 µM	> 100 µM	> 100 µM	> 100 µM	> 100 µM	> 100 µM	30 µM	16.2 µM	19.6 µM	28.2 µM	2820 nM	4.84 µM	10.3 µM	23.5 µM	> 100 µM	28.2 µM
c1ccc2c(c1)N=C(c1cccc3ccccc13)CC(c1cccc3ccccc13)S2 (stereo not given)	15.9 µM	4.85 µM	26.2 µM	16.6 µM	23.6 µM	4.89 µM	28.7 µM	26.1 µM	33 µM	16.8 µM										
N#Cc1c(-c2ccccc2)nc2c(c(-c3ccccc3)nn2-c2ccccc2)c1-c1ccc(O)cc1	3.04 µM	17.9 µM	5.48 µM	11.7 µM	4.16 µM	> 100 µM	5.1 µM	4.49 µM	5.65 µM	3.41 µM	1.64 µM	2.42 µM	2.27 µM	3.14 µM	2020 nM	2.95 µM	1.92 µM	2.12 µM	2.39 µM	1.75 µM
